# How the values were obtained:
# [1] = molecular target: T1, human EP4 receptor (Homo sapiens, UniProt P35408); test: Recombinant human EP4 receptor binding assay (HEK-293-EBNA stable transfectants); conditions: read-out: Binding Data (IC50 in nM) hEP4
# T1 construct: expressed in transfected cells
# Protocol: (§1) Human Recombinant EP4 Receptor: Stable Transfectants.
# (§2) Plasmids encoding the human EP4 receptor were prepared by cloning the respective coding sequences into the eukaryotic expression vector pCEP4 (Invitrogen). The pCEP4 vector contains an Epstein Barr virus (EBV) origin of replication, which permits episomal replication in primate cell lines expressing EBV nuclear antigen (EBNA-1). It also contains a hygromycin resistance gene that is used for eukaryotic selection. The cells employed for stable transfection were human embryonic kidney cells (HEK-293) that were transfected with and express the EBNA-1 protein. These HEK-293-EBNA cells (Invitrogen) were grown in medium containing Geneticin (G418) to maintain expression of the EBNA-1 protein. HEK-293 cells were grown in DMEM with 10% fetal bovine serum (FBS), 250 μg ml^−1 G418 (Life Technologies) and 200 μg ml^−1 gentamicin or penicillin/streptomycin.
# (§3) For transfection, the cells were grown to 50-60% confluency on 10 cm plates. The plasmid pCEP4 incorporating cDNA inserts for the respective human prostanoid receptor (20 μg) was added to 500 μl of 250 mM CaCl2. HEPES buffered saline×2 (2×HBS, 280 mM NaCl, 20 mM HEPES acid, 1.5 mM Na2 HPO4, pH 7.05-7.12) was then added dropwise to a total of 500 μl, with continuous vortexing at room temperature. After 30 min, 9 ml DMEM were added to the mixture. The DNA/DMEM/calcium phosphate mixture was then added to the cells, which had been previously rinsed with 10 ml PBS. The cells were then incubated for 5 hr at 37° C. in humidified 95% air/5% CO2. The calcium phosphate solution was then removed and the cells were treated with 10% glycerol in DMEM for 2 min. The glycerol solution was then replaced by DMEM with 10% FBS. The cells were incubated overnight and the medium was replaced by DMEM/10% FBS containing 250 μg ml^−1 G418 and penicillin/streptomycin. The following day hygromycin B was added to a final concentration of 200 μg ml^−1.
# (§4) Ten days after transfection, hygromycin B resistant clones were individually selected and transferred to a separate well on a 24 well plate. At confluence each clone was transferred to one well of a 6 well plate, and then expanded in a 10 cm dish. Cells were maintained under continuous hygromycin selection until use.
# (§5) Certain of the above compounds were tested for activity in the recombinant human EP4 receptor assay described above and the results are reported in Table 1, below.
# [2] = molecular target: T1, human EP4 receptor; test: Recombinant human EP4 receptor functional assay (HEK-293-EBNA stable transfectants); format: cell-based; conditions: read-out: Functional Data (EC50 in nM) hEP4
# Protocol: as §1, §2, §3, §4, §5
# T1 sequence (P35408 whole entry): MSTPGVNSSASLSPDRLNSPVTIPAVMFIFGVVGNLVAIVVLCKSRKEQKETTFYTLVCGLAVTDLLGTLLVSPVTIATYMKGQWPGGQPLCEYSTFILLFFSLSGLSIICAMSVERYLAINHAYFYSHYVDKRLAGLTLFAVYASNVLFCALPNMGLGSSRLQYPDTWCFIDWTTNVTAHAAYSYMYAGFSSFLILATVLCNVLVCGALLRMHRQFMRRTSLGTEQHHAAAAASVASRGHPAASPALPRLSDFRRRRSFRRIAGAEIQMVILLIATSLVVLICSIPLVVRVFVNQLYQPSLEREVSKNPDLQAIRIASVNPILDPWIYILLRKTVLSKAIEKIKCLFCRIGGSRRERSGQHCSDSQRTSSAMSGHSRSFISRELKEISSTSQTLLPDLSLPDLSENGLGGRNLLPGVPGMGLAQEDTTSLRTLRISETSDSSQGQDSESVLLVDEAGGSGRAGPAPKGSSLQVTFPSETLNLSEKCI
SMILES,IC50 [1] [nM],EC50 [2] [nM]
"CCCCC[C@H](O)CC[C@H]1[C@H](O)CCC(=O)[C@@H]1CCCCCCC(=O)O [Example 9, 7-[(1R,2R,3R)-3-Hydroxy-2-((S)-3-hydroxy-octyl)-6-oxo-cyclohexyl]-heptanoic acid]",600,387
"O=C(O)CCCC#CC[C@H]1C(=O)CC[C@@H](O)[C@@H]1/C=C/C(O)CCc1ccccc1 (stereo partly drawn) [Example 4, 7-[(1R,2R,3R)-3-Hydroxy-2-((E)-3-hydroxy-5-phenyl-pent-1-enyl)-6-oxo-cyclohexyl]-hept-5-ynoic acid]",1000,214
"O=C(O)CCC/C=C\C[C@H]1C(=O)CC[C@@H](O)[C@@H]1/C=C/C(O)Cc1csc2ccccc12 (stereo partly drawn) [Example 3, (Z)-7-[(1R,2R,3R)-2-((E)-4-Benzo[b]thiophen-3-yl-3-hydroxy-but-1-enyl)-3-hydroxy-6-oxo-cyclohexyl]-hept-5-enoic acid]",1300,168
"O=C(O)CCC/C=C\C[C@H]1C(=O)C=CC[C@@H]1/C=C/C(O)CCc1sc2ccccc2c1Cl (stereo partly drawn) [Example 10, (Z)-7-{(1R,6R)-6-[(E)-5-(3-Chloro-benzo[b]thiophen-2-yl)-3-hydroxy-pent-1-enyl]-2-oxo-cyclohex-3-enyl}-hept-5-enoic acid]",1800,456
"O=C(O)CCCC#CC[C@H]1C(=O)CC[C@@H](O)[C@@H]1/C=C/C(O)Cc1csc2ccccc12 (stereo partly drawn) [Example 8, 7-[(1R,2R,3R)-2-((E)-4-Benzo[b]thiophen-3-yl-3-hydroxy-but-1-enyl)-3-hydroxy-6-oxo-cyclohexyl]-hept-5-ynoic acid]",3500,362

# Molecules with a lower IC50 [1], results first:
IC50 [1] [nM],EC50 [2] [nM],SMILES
400,67,O=C(O)CCC/C=C\C[C@H]1C(=O)CC[C@@H](O)[C@@H]1/C=C/C(O)CCc1sc2ccccc2c1Cl (stereo partly drawn) [1 low Rf]
200,136,O=C(O)CCC/C=C\C[C@H]1C(=O)CC[C@@H](O)[C@@H]1/C=C/C(O)CCc1sc2ccccc2c1Cl (stereo partly drawn) [1 high Rf]
35,314,"O=C(O)CCC/C=C\C[C@@H]1[C@@H](/C=C/C(O)CCc2sc3ccccc3c2Cl)[C@H](O)CC[C@H]1Cl (stereo partly drawn) [Example 6, (Z)-7-{(1R,2R,3R,6R)-6-Chloro-2-[(E)-5-(3-chloro-benzo[b]thiophen-2-yl)-3-hydroxy-pent-1-enyl]-3-hydroxy-cyclohexyl)-hept-5-enoic acid]"
100,11,"O=C(O)CCC/C=C\C[C@H]1C(=O)CC[C@@H](O)[C@@H]1/C=C/C(O)Cc1ccccc1 (stereo partly drawn) [Example 2, (Z)-7-[(1R,2R,3R)-3-Hydroxy-2-((E)-3-hydroxy-4-phenyl-but-1-enyl)-6-oxo-cyclohexyl]-hept-5-enoic acid]"

# Source: patent US7473704B2, “Cyclohexyl prostaglandin analogs as EP4-receptor agonists” (Allergan, Inc., priority 2003, dated 2009)
